# Source: patent EP3335720A1, “C-DI-GMP BINDING PEPTIDES” (Universität Basel, priority 2016, dated 2018)
# Where two headings read alike, the source gives them in different places. Peptide text beside a SMILES is read from it. * marks the point of attachment. FITC = O=C1OC2(c3ccc(O)cc3Oc3cc(O)ccc32)c2ccc(NC(=S)*)cc21
# Columns and labels:
# epithelial HeLa cells = assay: Cytotoxicity assays: resazurin reduction assay and LDH release assay; assay type: cell-based, human; settings: 24 hours, Figures 11 and 12
# Procedure: The cytotoxicity of the peptides was determined with a Resazurin cell viability assay (Sigma #R7017). In a 96-well plate (Corning #3904), monolayers of epithelial HeLa ATCC CCL-2 cells were grown in 100 µl growth medium (DMEM (Sigma #D5796) containing 10% FCS). Afterwards, the medium was removed and either replaced by DMEM/10% FCS containing 2-fold serial diluted peptides with a highest concentration of 256 mg/L. After 24 hours, the medium was removed and replaced by 100 µl fresh growth medium. 1% Triton X-100 (Sigma) was used as positive lysis control. 20 µl of resazurin solution (0.1 mg/ml) was added. After 2 hours, the fluorescence signal was recorded using a microplate reader (Synergy H4 BioTek) with an excitation wavelength of 560 nm and emission wavelength 590 nm.
# Cells were prepared and treated with peptides as described for the resazurin reduction assay. 24 hours after peptide treatment, control wells were treated with 1% Triton X-100 (Sigma) as lysis control. LDH release was measured using the LDH Cytotoxicity Detection Kit (Clontech). Absorbance was measured at 490 nm using a microplate reader (Synergy H4 BioTek). The percentage of cell death was calculated as follows: (LDH peptide treated - LDH untreated)/(LDH total lysis - LDH untreated)* 100.
# [1] = tested on: P. aeruginosa PAO1 biofilms; assay type: cell-based
# Procedure: The parameter "MBIC50", as used herein, is defined as the peptide concentration leading to 50% biofilm reduction in a standard biofilm assay. Preferably, the medium used for the assay is Mueller-Hinton broth (MHB), since most bacteria can be grown in this medium, and it allows a reliable comparison of MBIC values. MBIC50 values in accordance with the invention are obtained by growing P. aeruginosa at 37°C in presence of different concentrations of peptides, without agitation, for 24 h, followed by staining the adherent biofilm, dissolving the biofilm and measuring the OD600.
# The standard biofilm assay (O'Toole G.A., Pratt L.A., Watnick P.I., Newman D.K., Weaver V.B., and Kolter R. 1999. Genetic approaches to study of biofilms. Methods Enzymol. 310: 91-109) was followed with minor modification, i.e. Mueller-Hinton II broth (MHB) (Becton Dickinson #212322) was used instead of lysogenic broth (LB) or minimal medium. MHB is preferred by The European Committee on Antimicrobial Susceptibility Testing (EUCAST) as the medium for MIC determination because most bacteria can be grown in this medium, which allows a more reliable MIC values comparisons. The MBIC50 was defined as the peptide concentration leading to 50% biofilm reduction (de la Fuente-Nunez C., Korolik V., Bains M., Nguyen U., Breidenstein E. B. M., Horsman S., Lewenza S., Burrows L., Hancock, R. E. W. (2012) Inhibition of bacterial biofilm formation and swarming motility by a small synthetic cationic peptide. 56: 2696-2704). MBIC50 values were obtained by growing P. aeruginosa (PAO1) biofilms in 96-well plates (Falcon #353072) in presence of peptides at 37°C without agitation in MHB. After 24 hours, bacterial growth was evaluated by measuring the OD600 in a microtiter plate reader (EL800, BioTek). Afterwards, the plates were rinsed three times with demineralized water to remove non-attached bacteria. The adherent biofilms were stained with 0.1% Crystal Violet and subsequently dissolved in 20% acetic acid. Dissolved biofilms were quantified by measuring the OD600 in a microtiter plate reader.
# c-di-GMP = assay: Binding affinity of peptides to c-di-GMP by isothermal titration calorimetry (ITC); settings: for Kd: Table 3, peptides with amino acid substitution, 15°C, pH 8.0, read-out: Dissociation constant
# Procedure: Binding affinities of peptides to c-di-GMP were measured using isothermal titration calorimetry (ITC) on a VP-ITC MicroCalorimeter (MicroCal, Northampton, MA, USA). Peptides, c-di-GMP and buffer (50 mM Tris-HCl, pH 8.0, 100 mM NaCl) were degassed for 15 min prior to filling into sample cell and syringe. All experiments were carried out at a temperature of 15°C. The data were evaluated using ITC Data Analysis in ORIGIN provided by the manufacturer.
# in vitro = in vitro ADME, P. aeruginosa PAO1; settings: cells or culture medium
# Procedure: P. aeruginosa PAO1 lysate, which was used to test peptide stability, was prepared by the following procedure. 500 ml of cells grown overnight at 37°C were harvested by centrifugation at 5000 rpm, 10 min at 4°C. Pellets were resuspended in 60 ml PBS (Gibco) and centrifuged at 5000 rpm, 10 min at 4°C. Pellets were resuspended again in 20 ml PBS and centrifuged at 5000 rpm, 10 min at 4°C. Cells were disrupted using high-pressure cell disrupter (Stansted Fluid Power). Cell lysate was separated from cell debris by centrifugation at 14,000 rpm for 20 min at 4°C. Lysate was diluted 10 fold to yield a protein content of about 1 mg/ml. The lysate was used for all experiments described below.
# The stability of peptides was tested against P. aeruginosa PAO1 cell lysate. About 1 to 3 µg of peptides were incubated with 5 µl P. aeruginosa PAO1 cell lysate or PBS (untreated controls) at 37°C. After 2 hours, 6 µl of 2x SDS sample buffer was added to the samples and heated to 95°C for 5 min. Samples were analyzed on 10-20% Mini-PROTEAN tris-tricine gels (BIO-RAD #4563115) according to manufacturer's recommended protocol. Band intensities were quantified using the program ImageJ (Schneider, C. A., Rasband, W. S. and Eliceiri, K. W. 2012. NIH Image to ImageJ: 25 years of image analysis. Nature methods. 9: 671-675).
Compound,Kd (c-di-GMP) [µM],remaining at 2 h (in vitro) [%],further results
"C[C@H](NC(=O)[C@H](CO)NC(=O)[C@H](CC(N)=O)NC(=O)[C@H](Cc1ccccc1)NC(=O)[C@H](CCCNC(=N)N)NC(=O)[C@H](CCCNC(=N)N)NC(=O)[C@H](CCCNC(=N)N)NC(=O)[C@H](CC(=O)O)NC(=S)Nc1ccc2c(c1)C(=O)OC21c2ccc(O)cc2Oc2cc(O)ccc21)C(=O)N[C@@H](CC(=O)O)C(=O)N[C@@H](Cc1ccc(O)cc1)C(=O)N[C@@H](CCCCN)C(=O)NCC(=O)N1CCC[C@H]1C(=O)N[C@@H](CCCNC(=N)N)C(=O)N[C@@H](CCCNC(=N)N)C(=O)N[C@@H](CCCNC(=N)N)C(=O)N[C@@H](CCCCN)C(=O)N[C@@H](C)C(=O)N[C@@H](CC(=O)O)C(N)=O [SEQ ID NO: 43, FITC-DRRRFNSADYKGPRRRKAD-NH2] ({FITC}-DRRRFNSADYKGPRRRKAD-NH2)",,,concentration up to which no toxic effect was shown (epithelial HeLa cells): ≤ 64 µg/mL
C[C@H](NC(=O)[C@H](CO)NC(=O)[C@H](CC(N)=O)NC(=O)[C@H](Cc1ccccc1)NC(=O)[C@H](CCCNC(=N)N)NC(=O)[C@H](CCCNC(=N)N)NC(=O)[C@H](CCCNC(=N)N)NC(=O)[C@H](CC(=O)O)NC(=O)[C@H](CCCNC(=N)N)NC(=O)[C@H](CCCNC(=N)N)NC(=O)[C@H](CCCNC(=N)N)NC(=O)[C@H](CCCNC(=N)N)NC(=O)[C@H](CCCNC(=N)N)NC(=O)[C@H](CCCNC(=N)N)NC(=O)[C@H](CCCNC(=N)N)NC(=O)[C@H](CCCNC(=N)N)NC(=S)Nc1ccc2c(c1)C(=O)OC21c2ccc(O)cc2Oc2cc(O)ccc21)C(=O)N[C@@H](CC(=O)O)C(=O)N[C@@H](Cc1ccc(O)cc1)C(=O)N[C@@H](CCCCN)C(=O)NCC(=O)N1CCC[C@H]1C(=O)N[C@@H](CCCNC(=N)N)C(=O)N[C@@H](CCCNC(=N)N)C(=O)N[C@@H](CCCNC(=N)N)C(=O)N[C@@H](CCCCN)C(=O)N[C@@H](C)C(=O)N[C@@H](CC(=O)O)C(N)=O [SEQ ID NO: 48] ({FITC}-RRRRRRRRDRRRFNSADYKGPRRRKAD-NH2),,,concentration up to which no toxic effect was shown (epithelial HeLa cells): ≤ 32 µg/mL
C[C@H](NC(=O)[C@H](CO)NC(=O)[C@H](CC(N)=O)NC(=O)[C@H](Cc1ccccc1)NC(=O)[C@H](CCCNC(=N)N)NC(=O)[C@H](CCCNC(=N)N)NC(=O)[C@H](CCCNC(=N)N)NC(=O)CNC(=O)[C@H](CC(=O)O)NC(=O)[C@H](CCCNC(=N)N)NC(=O)[C@H](CCCNC(=N)N)NC(=O)[C@H](CCCNC(=N)N)NC(=O)[C@H](CCC(N)=O)NC(=O)[C@H](CCCNC(=N)N)NC(=O)[C@H](CCCNC(=N)N)NC(=O)[C@H](CCCCN)NC(=O)[C@H](CCCCN)NC(=O)[C@H](CCCNC(=N)N)NC(=O)CNC(=O)[C@H](Cc1ccc(O)cc1)NC(=S)Nc1ccc2c(c1)C(=O)OC21c2ccc(O)cc2Oc2cc(O)ccc21)C(=O)N[C@@H](CC(=O)O)C(=O)N[C@@H](Cc1ccc(O)cc1)C(=O)N[C@@H](CCCCN)C(=O)NCC(=O)N1CCC[C@H]1C(=O)N[C@@H](CCCNC(=N)N)C(=O)N[C@@H](CCCNC(=N)N)C(=O)N[C@@H](CCCNC(=N)N)C(=O)N[C@@H](CCCCN)C(=O)N[C@@H](C)C(=O)N[C@@H](CC(=O)O)C(N)=O [SEQ ID NO: 51] ({FITC}-YGRKKRRQRRRDGRRRFNSADYKGPRRRKAD-NH2),,,"MBIC50 ([1]; peptide concentration leading to 50% biofilm reduction, MHB, 37°C, 24 hours, without agitation): below 0.25 mg/L; concentration up to which no toxic effect was shown (epithelial HeLa cells): ≤ 64 µg/mL"
C[C@H](NC(=O)[C@H](CO)NC(=O)[C@H](CC(N)=O)NC(=O)[C@H](Cc1ccccc1)NC(=O)[C@H](CCCNC(=N)N)NC(=O)[C@H](CCCNC(=N)N)NC(=O)[C@H](CCCNC(=N)N)NC(=O)[C@H](CC(=O)O)NC(=S)Nc1ccc2c(c1)C(=O)OC21c2ccc(O)cc2Oc2cc(O)ccc21)C(=O)N[C@@H](CC(=O)O)C(=O)N[C@@H](Cc1ccc(O)cc1)C(=O)N[C@@H](CCCCN)C(=O)NCC(=O)N1CCC[C@H]1C(=O)N[C@@H](CCCNC(=N)N)C(=O)N[C@@H](CCCNC(=N)N)C(=O)N[C@@H](CCCNC(=N)N)C(=O)N[C@@H](CCCCN)C(=O)N[C@@H](C)C(=O)N[C@@H](CC(=O)O)C(N)=O [compound 43] ({FITC}-DRRRFNSADYKGPRRRKAD-NH2),,,"MBIC50 ([1]; PAO1, 24 h): 0.25 to 0.5 mg/L"
Ac-DRARFNSADYKGPRRRKAD-NH2 [compound 15],1.51,11,
Ac-DRRAFNSADYKGPRRRKAD-NH2 [compound 16],0.78,35,
"Ac-DRRRANSADYKGPRRRKAD-NH2 [SEQ ID NO: 17, AC-DRRRANSADYKGPRRRKAD-NH2]",,70,"binding affinity to c-di-GMP, in words (c-di-GMP; compared to the core sequence / peptide of SEQ ID NO: 12): does not significantly reduce binding affinity"
Ac-DRRRFASADYKGPRRRKAD-NH2 [compound 18],0.22,1,
Ac-DRRRFNAADYKGPRRRKAD-NH2 [compound 19],0.21,30,
Ac-DRRRFNSAAYKGPRRRKAD-NH2 [compound 21],0.15,2,
Ac-DRRRFNSADAKGPRRRKAD-NH2 [compound 22],4.36,39,
Ac-DRRRFNSADYAGPRRRKAD-NH2 [compound 23],0.26,42,
Ac-DRRRFNSADYKAPRRRKAD-NH2 [compound 24],4.07,41,
Ac-DRRRFNSADYKGARRRKAD-NH2 [compound 25],0.35,30,
Ac-DRRRFNSADYKGPARRKAD-NH2 [compound 26],1.83,27,
Ac-DRRRFNSADYKGPRARKAD-NH2 [compound 27],3.95,2,
Ac-DRRRFNSADYKGPRRRAAD-NH2 [compound 29],0.27,9,
Ac-DRRRFNSADYKGPRRRKAA-NH2 [compound 31],1.75,26,
Ac-DRRRFNSADYKGPRRRKAD-NH2 [compound 12],,,"MBIC50 ([1]; PAO1, 24 h): 0.25 to 0.5 mg/L"
Ac-DRRRFNSADYKGPRRRKLD-NH2 [compound 30],0.25,51,
Ac-DRRRFNSLDYKGPRRRKAD-NH2 [compound 20],0.1,27,
